The record followed here is US9920032B2, “Heterocyclic compounds useful as pim kinase inhibitors” (Incyte Corporation, priority 2015, dated 2018).

A value given as a limit tells only on which side of the number the result lay.

Holding throughout (assay type): biochemical
One experiment addresses Pim-3 (Homo sapiens (Human), UniProt Q86V86). The experiment in a line: Pim-3 kinase assay. To be noted: 1 mM ATP; read-out: PIM3 IC50. An outline of the steps: (§1)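 Biotin-BAD peptide (0.05 μM) phosphorylated with 1 mM ATP by 2.5 pM Pim-1 or 1.25 pM Pim-3 in Tris pH 7.5/MgCl2/DTT buffer, 1 h at 25° C. EDTA stop; phospho-BAD (Ser112) antibody with streptavidin donor and Protein-A acceptor beads, 1 h dark at room temperature before AlphaScreen-type bead read.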

For a further experiment, the target named is Pim-1 (Homo sapiens (Human), UniProt P11309). Description: Pim-1 kinase assay. To be noted: 1 mM ATP; read-out: PIM1 IC50. An outline of the steps: as §1
The next experiment addresses Pim-2 (Homo sapiens (Human), UniProt Q9P1W9). The experiment in a line: Pim-2 kinase assay. To be noted: 1 mM ATP; read-out: PIM2 IC50. An outline of the steps:
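TR-FRET assay with 1 nM enzyme, 0.05 μM fluorescein-CREBtide and 1 mM ATP in Tris pH 7.5 buffer with MgCl2, DTT, BSA and Tween-20, run 2 h at 25° C. Stopped with EDTA and Tb-labelled anti-CREB pSer133 antibody, then read after 30 min at room temperature.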

Chain of Pim-1 (P11309 whole entry): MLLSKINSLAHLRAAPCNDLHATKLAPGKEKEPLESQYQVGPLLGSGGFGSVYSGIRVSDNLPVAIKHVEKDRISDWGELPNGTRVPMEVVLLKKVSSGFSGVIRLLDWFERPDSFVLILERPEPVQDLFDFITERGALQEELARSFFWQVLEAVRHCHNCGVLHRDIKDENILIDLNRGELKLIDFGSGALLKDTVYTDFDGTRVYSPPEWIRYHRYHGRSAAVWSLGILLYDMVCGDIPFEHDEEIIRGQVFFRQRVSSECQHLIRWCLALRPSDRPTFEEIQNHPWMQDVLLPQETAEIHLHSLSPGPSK
Chain of Pim-2 (Q9P1W9 whole entry): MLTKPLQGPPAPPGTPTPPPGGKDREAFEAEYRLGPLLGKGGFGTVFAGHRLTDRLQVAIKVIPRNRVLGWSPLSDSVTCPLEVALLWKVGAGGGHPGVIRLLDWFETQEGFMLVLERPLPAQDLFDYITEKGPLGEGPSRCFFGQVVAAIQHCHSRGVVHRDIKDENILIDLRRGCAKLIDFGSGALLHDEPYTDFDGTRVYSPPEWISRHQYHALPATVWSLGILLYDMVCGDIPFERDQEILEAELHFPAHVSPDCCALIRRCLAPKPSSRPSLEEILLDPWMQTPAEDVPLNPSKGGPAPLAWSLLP

For `C[C@@H]1C[C@H](N)C[C@H](c2ccncc2NC(=O)c2ccc(F)c3cc(N4CCN5C(=O)CCC5C4)cnc23)C1` (stereo partly drawn) [Example 84, N-(4-((1R,3S,5S)-3-Amino-5-methylcyclohexyl)pyridin-3-yl)-5-fluoro-3-(6-oxohexahydropyrrolo[1,2-a]pyrazin-2(1H)-yl)quinoline-8-carboxamide], the figures for the IC50 at Pim-3, at Pim-1 and at Pim-2 were ≤ 10 nM, ≤ 10 nM and 100 to 1000 nM, respectively.

As to `C[C@@H]1C[C@H](N)C[C@H](c2ccncc2NC(=O)c2ccc(F)c3cc(N4CCOC[C@H]4C)nnc23)C1` [Example 94, N-{4-[(1R,3S,5S)-3-Amino-5-methylcyclohexyl]pyridin-3-yl}-5-fluoro-3-[(3R)-3-methylmorpholin-4-yl]cinnoline-8-carboxamide], the IC50 is ≤ 10 nM at Pim-3, ≤ 10 nM at Pim-1 and ≤ 100 nM at Pim-2.

For the compound `COC(=O)N1C[C@H]2C[C@@H]1CN2c1cnc2c(C(=O)Nc3cnccc3[C@@H]3C[C@H](C)C[C@H](N)C3)ccc(F)c2c1` [Example 90, (1R,4R)-Methyl 5-(8-(4-((1R,3S,5S)-3-amino-5-methylcyclohexyl)pyridin-3-ylcarbamoyl)-5-fluoroquinolin-3-yl)-2,5-diazabicyclo[2.2.1]heptane-2-carboxylate], the IC50 on Pim-3 was ≤ 10 nM; at Pim-1, ≤ 10 nM; at Pim-2, ≤ 100 nM.

For the compound `CC1CCN(c2cnc3c(C(=O)Nc4cnccc4[C@@H]4C[C@H](C)C[C@H](N)C4)ccc(F)c3c2)CC1` [Example 46, N-(4-((1R,3S,5S)-3-Amino-5-methylcyclohexyl)pyridin-3-yl)-5-fluoro-3-(4-methylpiperidin-1-yl)quinoline-8-carboxamide], the IC50 at Pim-3 is ≤ 10 nM; at Pim-1, ≤ 10 nM; on Pim-2, 100 to 1000 nM.

For the compound `CC(C)[C@H](C)Nc1cnc2c(C(=O)Nc3cnccc3[C@@H]3C[C@H](C)C[C@H](N)C3)ccc(F)c2c1` [Example 53, N-(4-((1R,3S,5S)-3-Amino-5-methylcyclohexyl)pyridin-3-yl)-5-fluoro-3-((S)-3-methylbutan-2-ylamino)quinoline-8-carboxamide], the results for the IC50 at Pim-3, at Pim-1 and on Pim-2 were ≤ 10 nM, ≤ 10 nM and 100 to 1000 nM, respectively.

Take `C[C@@H]1C[C@H](N)C[C@H](c2ccncc2NC(=O)c2ccc(F)c3cc(C#CC4CC4)cnc23)C1` [Example 14, N-{4-[(1R,3S,5S)-3-Amino-5-methylcyclohexyl]pyridin-3-yl}-3-(cyclopropylethynyl)-5-fluoroquinoline-8-carboxamide]: the IC50 at Pim-3 is ≤ 10 nM; at Pim-1 it was ≤ 10 nM; on Pim-2, 100 to 1000 nM.

Turning to `C[C@@H]1C[C@H](N)C[C@H](c2ccncc2NC(=O)c2ccc(F)c3cc(N(C)c4ncccc4OC(F)F)cnc23)C1` [Example 139, N-(4-((1R,3S,5S)-3-Amino-5-methylcyclohexyl)pyridin-3-yl)-3-((3-(difluoromethoxy)pyridin-2-yl)(methyl)amino)-5-fluoroquinoline-8-carboxamide], the IC50 is ≤ 10 nM on Pim-3, ≤ 10 nM on Pim-1 and ≤ 100 nM at Pim-2.

In the case of `C[C@@H]1C[C@H](N)C[C@H](c2ccncc2NC(=O)c2ccc(F)c3cc(N4CCCC4=O)cnc23)C1` [Example 78, N-(4-((1R,3S,5S)-3-Amino-5-methylcyclohexyl)pyridin-3-yl)-5-fluoro-3-(2-oxopyrrolidin-1-yl)quinoline-8-carboxamide], the results for the IC50 on Pim-3, on Pim-1 and on Pim-2 were ≤ 10 nM, ≤ 10 nM and 100 to 1000 nM, respectively.

With `CO[C@H]1CCN(c2cnc3c(C(=O)Nc4cnccc4[C@@H]4C[C@H](C)C[C@H](N)C4)ccc(F)c3c2)[C@H](C)C1` [Example 159, N-(4-((1R,3S,5S)-3-Amino-5-methylcyclohexyl)pyridin-3-yl)-5-fluoro-3-((2R,4S)-4-methoxy-2-methylpiperidin-1-yl)quinoline-8-carboxamide], the IC50 on Pim-3 is ≤ 10 nM; at Pim-1, ≤ 10 nM; at Pim-2, ≤ 100 nM.

On to `CC1CCC(C)N1c1cnc2c(C(=O)Nc3cnccc3[C@@H]3C[C@H](C)C[C@H](N)C3)ccc(F)c2c1` (stereo partly drawn) [Example 36, N-(4-((1R,3S,5S)-3-Amino-5-methylcyclohexyl)pyridin-3-yl)-3-(2,5-dimethylpyrrolidin-1-yl)-5-fluoroquinoline-8-carboxamide], for which the IC50 was 10 to 50 nM at Pim-3, ≤ 10 nM at Pim-1 and 100 to 1000 nM at Pim-2.

`C[C@@H]1C[C@H](N)C[C@H](c2ccncc2NC(=O)c2ccc(F)c3cc(N4CCCC[C@H]4C)cnc23)C1` [Example 169, N-(4-((1R,3S,5S)-3-Amino-5-methylcyclohexyl)pyridin-3-yl)-5-fluoro-3-((R)-2-methylpiperidin-1-yl)quinoline-8-carboxamide]: the values for the IC50 at Pim-3, on Pim-1 and on Pim-2 were ≤ 10 nM, ≤ 10 nM and ≤ 100 nM, respectively.

As to `CCOC(=O)N1CCN(c2cnc3c(C(=O)Nc4cnccc4[C@@H]4C[C@H](C)C[C@H](N)C4)ccc(F)c3c2)CC1` [Example 168, Ethyl 4-(8-(4-((1R,3S,5S)-3-amino-5-methylcyclohexyl)pyridin-3-ylcarbamoyl)-5-fluoroquinolin-3-yl)piperazine-1-carboxylate], the IC50 at Pim-3 is ≤ 10 nM; at Pim-1, ≤ 10 nM; on Pim-2, 100 to 1000 nM.

Take `C[C@@H]1C[C@H](N)C[C@H](c2ccncc2NC(=O)c2ccc(F)c3cc(N4CCC(F)(F)CC4)cnc23)C1` [Example 40, N-(4-((1R,3S,5S)-3-Amino-5-methylcyclohexyl)pyridin-3-yl)-3-(4,4-difluoropiperidin-1-yl)-5-fluoroquinoline-8-carboxamide]: the IC50 on Pim-3 was ≤ 10 nM; at Pim-1 it was ≤ 10 nM; at Pim-2 it was 100 to 1000 nM.

In the case of `CC(C)N(C)c1cnc2c(C(=O)Nc3cnccc3[C@@H]3C[C@H](C)C[C@H](N)C3)ccc(F)c2c1` [Example 56, N-(4-((1R,3S,5S)-3-Amino-5-methylcyclohexyl)pyridin-3-yl)-5-fluoro-3-(isopropyl(methyl)amino)quinoline-8-carboxamide], the figures for the IC50 on Pim-3, at Pim-1 and at Pim-2 were ≤ 10 nM, ≤ 10 nM and ≤ 100 nM, respectively.

In the case of `CC1CCCCN1c1cc2c(F)ccc(C(=O)Nc3cnccc3[C@@H]3C[C@H](C)C[C@H](N)C3)c2nn1` (stereo partly drawn) [Example 93, N-{4-[(1R,3S,5S)-3-Amino-5-methylcyclohexyl]pyridin-3-yl}-5-fluoro-3-(2-methylpiperidin-1-yl)cinnoline-8-carboxamide], the IC50 was ≤ 10 nM on Pim-3, ≤ 10 nM on Pim-1 and ≤ 100 nM on Pim-2.

On to `CC1CCC1N(C)c1cnc2c(C(=O)Nc3cnccc3[C@@H]3C[C@H](C)C[C@H](N)C3)ccc(F)c2c1` (stereo partly drawn) [Example 147, N-(4-((1R,3S,5S)-3-Amino-5-methylcyclohexyl)pyridin-3-yl)-5-fluoro-3-(methyl(2-methylcyclobutyl)amino)quinoline-8-carboxamide], for which the IC50 on Pim-3 is ≤ 10 nM; on Pim-1 it was ≤ 10 nM; at Pim-2 it was ≤ 100 nM.

In the case of `C[C@@H]1C[C@H](N)C[C@H](c2ccncc2NC(=O)c2ccc(F)c3cc(N4CCCN(C)C(=O)C4)cnc23)C1` [Example 135, N-(4-((1R,3S,5S)-3-Amino-5-methylcyclohexyl)pyridin-3-yl)-5-fluoro-3-(4-methyl-3-oxo-1,4-diazepan-1-yl)quinoline-8-carboxamide], the IC50 on Pim-3 was ≤ 10 nM; on Pim-1, ≤ 10 nM; on Pim-2 it was 100 to 1000 nM.

With `C[C@@H]1C[C@H](N)C[C@H](c2ccncc2NC(=O)c2ccc(F)c3cc(-c4c(F)cccc4F)nnc23)C1` [Example 91, N-{4-[(1R,3S,5S)-3-amino-5-methylcyclohexyl]pyridin-3-yl}-3-(2,6-difluorophenyl)-5-fluorocinnoline-8-carboxamide], the IC50 on Pim-3 was 10 to 50 nM; on Pim-1, ≤ 10 nM; at Pim-2 it was 1000 to 10000 nM.

As for `C[C@@H]1C[C@H](N)C[C@H](c2ccncc2NC(=O)c2ccc(F)c3cc(N4CCSCC4)cnc23)C1` [Example 73, N-(4-((1R,3S,5S)-3-Amino-5-methylcyclohexyl)pyridin-3-yl)-5-fluoro-3-thiomorpholinoquinoline-8-carboxamide], the IC50 on Pim-3 is ≤ 10 nM; at Pim-1 it was ≤ 10 nM; at Pim-2 it was ≤ 100 nM.

Turning to `CO[C@H]1CCN(c2cnc3c(C(=O)Nc4cnccc4[C@@H]4C[C@H](C)C[C@H](N)C4)ccc(F)c3c2)C1` [Example 50, N-(4-((1R,3S,5S)-3-Amino-5-methylcyclohexyl)pyridin-3-yl)-5-fluoro-3-((S)-3-methoxypyrrolidin-1-yl)quinoline-8-carboxamide], the 50% inhibitory concentration (IC50) on Pim-3 was ≤ 10 nM; on Pim-1, ≤ 10 nM; on Pim-2, ≤ 100 nM.

Consider `C[C@@H]1C[C@H](N)C[C@H](c2ccncc2NC(=O)c2ccc(F)c3cc(N4CCCc5ccccc54)cnc23)C1` [Example 130, N-(4-((1R,3S,5S)-3-Amino-5-methylcyclohexyl)pyridin-3-yl)-5′-fluoro-3,4-dihydro-2H-1,3′-biquinoline-8′-carboxamide], for which the IC50 on Pim-3 is ≤ 10 nM; on Pim-1 it was ≤ 10 nM; on Pim-2 it was 100 to 1000 nM.

Regarding `C[C@@H]1C[C@H](N)C[C@H](c2ccncc2NC(=O)c2ccc(F)c3cc(N4CC[C@@H](F)C4)cnc23)C1` [Example 6, N-{4-[(1R,3S,5S)-3-Amino-5-methylcyclohexyl]pyridin-3-yl}-5-fluoro-3-[(3R)-3-fluoropyrrolidin-1-yl]quinoline-8-carboxamide], the IC50 at Pim-3 was ≤ 10 nM; on Pim-1, ≤ 10 nM; at Pim-2, ≤ 100 nM.
